Data as given in patent publication US20220031680A1, “Donecopride As Neuroprotective Agent In the Treatment of Neurodegenerative Diseases” (priority 2018, published 2022).

What was measured:
[1] = test system: spinal motor neurons injured with glutamate; experiment: Survival and neurite network of primary spinal motor neurons after glutamate injury; type: cell-based, rat; details: glutamate 5 μM 20 min
Description: Rat spinal cord motor neurons (MNs) were cultured as described by Martinou et al. (1992) Neuron. 8:737-744 and Wang et al. (2013) Hum. Mol. Genet. 22:4706-4719. Briefly, pregnant female rats of 14 days gestation (Rats Wistar; Janvier Labs France) were killed using a deep anesthesia with CO2 chamber and a cervical dislocation. Then, fetuses were removed from the uterus and immediately placed in ice-cold L15 Leibovitz medium with a 2% penicillin (10,000 U/ml) and streptomycin (10 mg/ml) solution (PS) and 1% bovine serum albumin (BSA).
Spinal cords were treated for 20 min at 37° C. with a trypsin-EDTA solution at a final concentration of 0.05% trypsin and 0.02% EDTA. The dissociation was stopped by addition of Dulbecco's modified Eagle's medium (DMEM) with 4.5 g/I glucose, containing DNAse I grade II (final concentration 0.5 mg/ml) and 10% fetal calf serum (FCS). Cells were mechanically dissociated by three forced passages through the tip of a 10-ml pipette. Cells were then centrifuged at 515×g for 10 min at 4° C. The supernatant was discarded, and the pellet was resuspended in a defined culture medium consisting of Neurobasal medium with a 2% solution of B27 supplement, 2 mmol/I L-glutamine, 2% PS solution, and 10 ng/ml brain-derived neurotrophic factor (BDNF). Viable cells were counted in a Neubauer cytometer, using the trypan blue exclusion test. Cells were seeded at a density of 20,000 per well in 96-well plates precoated with poly-L-lysine and were cultured at 37° C. in an air (95%)-CO2 (5%) incubator.
The medium was changed every 2 days. […]
(§1) Test compounds were tested in 96-well plate (n=6 culture wells per condition). The following conditions were assessed: […]
The following endpoints were automatically assessed: • Analysis of neuron survival (MAP-2 staining, number of neurons), • Analysis of neurite network (MAP-2 staining, total neurite length in μm), • Analysis of neurite network/neurons (neuronal network/number of MAP2 neurons), • Analysis of cytoplasmic TDP-43 in MAP-2 positive neurons (overlapping between MAP-2 and cytoplasmic TDP-43 in μm^2).

[2] = test system: rat primary GABAergic neurons under a growth factor deprivation; experiment: Survival of GABAergic neurons after growth factor deprivation; type: cell-based; details: BDNF and GDNF deprivation 96 h
Description: The aim of this study was to investigate the neuroprotective effect of MR33583 (at 4 concentrations) in MSN of striatum survival after growth factor deprivation (BDNF and GDNF deprivation), an in vitro model of Huntington's disease.
Rat MSN of striatum were cultured as described by Ivkovic et al. (1999) J. Neurosci. 19:5409-5419 and Schinelli et al. (1988) J. Neurochem. 50:1900-1907. Briefly pregnant female rats of 15 days gestation were killed using a deep anesthesia with CO2 chamber and a cervical dislocation. Fetuses were collected and immediately placed in ice-cold L15 Leibovitz medium with a 2% penicillin (10,000 U/ml) and streptomycin (10 mg/ml) solution (PS) and 1% bovine serum albumin (BSA). Only a restricted ventral portion of the mesencephalic flexure was used for cell preparation as this is the region of the developing brain rich in MSN cells. These areas were treated for 20 min at 37° C. with a trypsin-EDTA solution at a final concentration of 0.05% trypsin and 0.02% EDTA. […] Viable cells were counted in a Neubauer cytometer using the trypan blue exclusion test. […]
as §1
The following read-out was investigated: Analysis of MSNs survival (GAD67 staining, number of GABAergic neurons).

Compound | concentrations significantly improving spinal motor neurons survival ([1]; 24 h) | concentrations significantly protecting the neurite network ([1]; spinal motor neurons) | ratio neurite network length/number of neurons ([1]; spinal motor neurons) | concentration with significant neuroprotective effect (survival of GABAergic neurons) [2]
COc1cc(N)c(F)cc1C(=O)CCC1CCN(CC2CCCCCC2)CC1 [MR36014] | 1 nM | 1 nM | not modified | –
COc1cc(N)c(F)cc1C(=O)CCC1CCN(CC2CCCC2)CC1 [MR33583] | – | – | – | 50 nM
